Structures can show the parent of a compound that is named as a salt.

Experimental findings from patent publication US6878700B1, “Cell adhesion-inhibiting antiinflammatory and immune-suppressive compounds” (Abbott Laboratories, priority 1998, dated 2005) are described below.

The nature of the first series: Water solubility of the isolated potassium salt. In kind it is physicochemical. The settings on record: solid obtained from the acid with KOH in MeOH (potassium salt). As for the experimental part: The compound of Example 137 was hydrolyzed using an excess of aqueous 10% NaOH in methanol, stirring overnight. The reaction mixture was concentrated in vacuo, water was added, and the solution was extracted with ether. The mixture was acidified; the resultant solid was collected by filtration and dried overnight in a vacuum oven, giving a white solid, m.p. 166-171C. ^1H-NMR (DMSO 300 MHz) δ 1.17 (t, J=7 Hz, 3H), broad peaks totaling 9 protons at 1.32-1.48, 1.51-1.78, 1.90-2.04, 2.25-2.50, 2.80-2.90, 2.95-3.17, 3.45-3.51, 3.95-4.19, 4.41-4.51, 4.06 (q, J=7 Hz, 1H), 6.80 (d, J=9 Hz, 1H), 7.01 (t, J=7 Hz, 1H), 7.15 (d, J=8 Hz, 1H), 7.26-7.40 (m, 2H), 7.40-7.48 (m, 1H), 7.51 (dd, J=9 Hz, 2 Hz, 1H), 7.99 (d, J=9 Hz, 1H). Anal. Calcd. for C23H24ClNO4S: C, 61.94; H, 5.42; N, 3.14. Found: C, 61.75; H, 5.65; N, 3.15. The resultant acid (303 mg, 0.631 mmol) was dissolved in 3 mL MeOH. A KOH solution (38 mg, 0.595 mmol, of 87.6% KOH) in 1 ml MeOH was added. The resulting solution was concentrated in vacuo, and 5 mL ether was added. The mixture was stirred for one hour to form a powder, which was filtered and dried in the vacuum oven at 60C to yield 307 mg of a solid, water soluble product. […]
In the case of `CCOc1ccccc1Sc1ccc(/C=C/C(=O)N2CCCC(C(=O)O)C2)c(Cl)c1Cl` (stereo not shown) [Example 343], the solubility in water result is given as “water-soluble”.

Regarding `CCOc1ccccc1Sc1ccc(/C=C/C(=O)N2CCCC(C(=O)O)C2)cc1Cl` (stereo not shown) [Example 155, (2-Ethoxyphenyl)-[2-chloro-4-(E-[(3-carboxypiperidin-1-yl)carbonyl]ethenyl)phenyl]sulfide], the solubility in water entry is given as “water soluble”.

Test in the next series: not given
Conditions: not given
In general, melting point refers to the temperature, or range, at which the solid turns liquid. As to `COC(=O)N1CCN(C(=O)/C=C/c2ccc(Sc3ccc4c(c3)OCCO4)c(C(F)(F)F)c2)C(C(=O)O)C1` (stereo not shown) [Example 271, (Benzodioxan-6-yl)[2-trifluoromethyl-4-(E-((2-carboxy-4-methoxycarbonylpiperazin-1-yl)carbonyl)ethenyl)phenyl]sulfide], the melting point was 102 °C (dec.). Compound `CC(C)(C)OC(=O)N1CCN(C(=O)/C=C/c2ccc(Sc3ccc4c(c3)OCCO4)c([N+](=O)[O-])c2)CC1` [Example 205, (Benzodioxan-6-yl)[2-nitro-4-(E-((4-tert-butoxycarbonylpiperazin-1-yl)carbonyl)ethenyl)phenyl]sulfide] yielded a melting point of 165 to 167 °C. On the same count and under the same terms, under `COC(=O)C1CN(C(=O)/C=C/c2ccc(Sc3ccc4c(c3)OCCO4)c(C(F)(F)F)c2)CCN1C(=O)OC` (stereo not shown) [Example 269, (Benzodioxan-6-yl)[2-trifluoromethyl-4-(E-((3-carbomethoxy-4-methoxycarbonylpiperazin-1-yl)carbonyl)ethenyl)phenyl]sulfide] stands 56 °C (dec.). For `O=C(O)C1CCCCN1C(=O)/C=C/c1ccc(Sc2ccc3c(c2)OCCO3)c(C(F)(F)F)c1` (stereo not shown) [Example 264, (Benzodioxan-6-yl)[2-trifluoromethyl-4-(E-((2-carboxypiperidin-1-yl)carbonyl)ethenyl)phenyl]sulfide], the melting point is 90 °C (dec.).

In the case of `O=C(O)CN1CCN(C(=O)/C=C/c2ccc(Sc3ccc4c(c3)OCCO4)c([N+](=O)[O-])c2)CC1` (as salt: salt) [Example 221, (Benzodioxan-6-yl)[2-nitro-4-(E-((4-carboxymethylpiperazin-1-yl)carbonyl)ethenyl)phenyl]sulfide], the melting point was 120 °C (dec.). The same measure, in the same setting: the figure for `COC(=O)C1CNCCN1C(=O)/C=C/c1ccc(Sc2ccc3c(c2)OCCO3)c(C(F)(F)F)c1` (stereo not shown) [Example 255, (Benzodioxan-6-yl)[2-trifluoromethyl-4-(E-((2-carbomethoxypiperazin-1-yl)carbonyl)ethenyl)phenyl]sulfide] is 70 to 72 °C; for `CCOC(=O)C1CCCN(C(=O)/C=C/c2ccc(Sc3ccc4c(c3)OCCO4)c([N+](=O)[O-])c2)C1` (stereo not shown) [Example 197, (Benzodioxan-6-yl)[2-nitro-4-(E-((3-carboethoxypiperidin-1-yl)carbonyl)ethenyl)phenyl]sulfide] it is 73 to 75 °C. Consider `CCOC(=O)C1CCCCN1C(=O)/C=C/c1ccc(Sc2ccc3c(c2)OCCO3)c([N+](=O)[O-])c1` (stereo not shown) [Example 203, (Benzodioxan-6-yl)[2-nitro-4-(E-((2-carboethoxypiperidin-1-yl)carbonyl)ethenyl)phenyl]sulfide], for which the melting point fell in the range of 74 to 75 °C.

Turning to `Nc1ccccc1Sc1ccc(/C=C/C(=O)N2CCOCC2)c(Cl)c1Cl` [Example 410, (2-Aminophenyl)[2,3-dichloro-4-(E-((4-morpholinyl)carbonyl)ethenyl)phenyl]sulfide], the melting point was 230 to 240 °C (dec.). The same measure, in the same setting: the figure for `COC(=O)C1CN(C(=O)OC(C)(C)C)CCN1C(=O)/C=C/c1ccc(Sc2ccc3c(c2)OCCO3)c(C(F)(F)F)c1` (stereo not shown) [Example 253, (Benzodioxan-6-yl)[2-trifluoromethyl-4-(E-((2-carbomethoxy-4-tert-butoxycarbonylpiperazin-1-yl)carbonyl)ethenyl)phenyl]sulfide] is 85 to 87 °C; for `O=C(O)C1CCN(C(=O)/C=C/c2ccc(Sc3ccc4c(c3)OCCO4)c(C(F)(F)F)c2)CC1` [Example 263, (Benzodioxan-6-yl)[2-trifluoromethyl-4-(E-((4-carboxypiperidin-1-yl)carbonyl)ethenyl)phenyl]sulfide] it is 88 °C (dec.); for `O=C(O)C1CCCCN1C(=O)/C=C/c1ccc(Sc2ccc3c(c2)OCCO3)c([N+](=O)[O-])c1` (stereo not shown) [Example 220, (Benzodioxan-6-yl)[2-nitro-4-(E-((2-carboxypiperidin-1-yl)carbonyl)ethenyl)phenyl]sulfide] it is 165 °C (dec.). Still for that read-out and setting: the figure for `CCOc1ccccc1Sc1ccc(/C=C/C(=O)N2CCCC(C(=O)O)C2)cc1Cl` (stereo not shown) [Example 155, (2-Ethoxyphenyl)-[2-chloro-4-(E-[(3-carboxypiperidin-1-yl)carbonyl]ethenyl)phenyl]sulfide] is 166 to 171 °C; for `CCOc1ccccc1Sc1ccc(/C=C/C(=O)N2CCCCC2C(=O)O)cc1Cl` (stereo not shown) [Example 158, (2-Ethoxyphenyl)-[2-chloro-4-(E-[(2-carboxypiperidin-1-yl)carbonyl]ethenyl)phenyl]sulfide] it is 170 to 171 °C.
